Legend:
Assay in all cases: normalised response (% of control), CellTiter-Glo; higher = more viable cells (100 = DMSO, 0 = benzethonium chloride kill control)
Conditions in all cases: incubation time: 72 h
BT-474 = test system: BT-474
Method in brief: (§1)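 CellTox Green fluorescence (485/520 nm) and, after 10 min at room temperature, CellTiter-Glo luminescence were read from breast cancer cell lines incubated 72 h in 384-well plates. Cells were seeded as 20 µl suspension onto compound at 5 concentrations in 10-fold steps over a 10,000-fold range chosen per compound. Each plate was normalised to 0.1 % DMSO (100) and a positive kill control (0). Values are normalised signals, one per concentration.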

BT-549 = test system: BT-549
Method in brief: as §1

CAL-120 = test system: CAL-120
Method in brief: as §1

CAL-148 = test system: CAL-148
Method in brief: as §1

CAL-51 = test system: CAL-51
Method in brief: as §1

CAL-85-1 = test system: CAL-85-1
Method in brief: as §1

DU-4475 = test system: DU-4475
Method in brief: as §1

HCC1143 = test system: HCC1143
Method in brief: as §1

HCC1599 = test system: HCC1599
Method in brief: as §1

HCC1937 = test system: HCC1937
Method in brief: as §1

HDQ-P1 = test system: HDQ-P1
Method in brief: as §1

Hs578T = test system: Hs578T
Method in brief: as §1

MCF-10A = test system: MCF-10A
Method in brief: as §1

MDA-MB-231 = test system: MDA-MB-231
Method in brief: as §1

MDA-MB-436 = test system: MDA-MB-436
Method in brief: as §1

MDA-MB-453 = test system: MDA-MB-453
Method in brief: as §1

MDA-MB-468 = test system: MDA-MB-468
Method in brief: as §1

MFM-223 = test system: MFM-223
Method in brief: as §1

SK-BR-3 = test system: SK-BR-3
Method in brief: as §1

Row | Structure (SMILES) | normalised response (BT-474) [%] | normalised response (BT-549) [%] | normalised response (CAL-120) [%] | normalised response (CAL-148) [%] | normalised response (CAL-51) [%] | normalised response (CAL-85-1) [%] | normalised response (DU-4475) [%] | normalised response (HCC1143) [%] | normalised response (HCC1599) [%] | normalised response (HCC1937) [%] | normalised response (HDQ-P1) [%] | normalised response (Hs578T) [%] | normalised response (MCF-10A) [%] | normalised response (MDA-MB-231) [%] | normalised response (MDA-MB-436) [%] | normalised response (MDA-MB-453) [%] | normalised response (MDA-MB-468) [%] | normalised response (MFM-223) [%] | normalised response (SK-BR-3) [%]
1 | Nc1nc2[nH]cc(CCc3ccc(C(=O)N[C@@H](CCC(=O)O)C(=O)O)cc3)c2c(=O)[nH]1 [Pemetrexed] (1 nM) | 97.8 | 105 | 106 | 98.9 | 90 | 94.2 | 95.1 | 91.6 | 85.1 | 96.8 | 105 | 101 | 95.7 | 97.4 | 98.7 | 101 | 99 | 92.6 | 101
2 | Nc1nc2[nH]cc(CCc3ccc(C(=O)N[C@@H](CCC(=O)O)C(=O)O)cc3)c2c(=O)[nH]1 [Pemetrexed] (10 nM) | 98.2 | 108 | 105 | 98 | 73.3 | 97.5 | 95.3 | 106 | 88.7 | 104 | 99.5 | 98.5 | 100 | 96.9 | 91.3 | 92.8 | 93.9 | 94.9 | 97.1
3 | CC[C@H](C)C(=O)O[C@H]1C[C@H](O)C=C2C=C[C@H](C)[C@H](CC[C@@H](O)C[C@@H](O)CC(=O)O)[C@H]21 [Pravastatin] (1 nM) | 99.6 | 102 | 101 | 87.5 | 104 | 92.6 | 95.5 | 95.1 | 117 | 97.6 | 103 | 101 | 96 | 102 | 99.6 | 99.8 | 99.9 | 93.1 | 94.2
4 | CC[C@H](C)C(=O)O[C@H]1C[C@H](O)C=C2C=C[C@H](C)[C@H](CC[C@@H](O)C[C@@H](O)CC(=O)O)[C@H]21 [Pravastatin] (10 nM) | 98.1 | 92.2 | 105 | 98.7 | 128 | 104 | 91.5 | 97.3 | 88.5 | 95.4 | 106 | 100 | 102 | 99.1 | 97.7 | 85.2 | 104 | 92.3 | 95.6
5 | Cc1cnc(NC(=O)Nc2cc(Br)c(C)cc2OC[C@@H]2CNCCO2)cn1 [Rabusertib] (0.1 nM) | 109 | 103 | 107 | 112 | 108 | 107 | 109 | 103 | 88.5 | 101 | 102 | 102 | 109 | 104 | 106 | 114 | 101 | 103 | 111
6 | CNC(=O)c1cc(Oc2ccc(NC(=O)Nc3cc(C(C)(C)C)nn3-c3ccc4ncccc4c3)c(F)c2)ccn1 [Rebastinib] (0.1 nM) | 99.5 | 95.8 | 97.7 | 104 | 122 | 96.6 | 101 | 98.3 | 105 | 107 | 105 | 103 | 109 | 101 | 97.9 | 102 | 97.1 | 101 | 113
7 | CNC(=O)c1cc(Oc2ccc(NC(=O)Nc3cc(C(C)(C)C)nn3-c3ccc4ncccc4c3)c(F)c2)ccn1 [Rebastinib] (1 nM) | 98.8 | 93.8 | 99.1 | 109 | 123 | 99.5 | 98.8 | 104 | 102 | 97.6 | 100 | 103 | 109 | 94.7 | 99.5 | 93.5 | 96.3 | 100 | 104
8 | COc1cc([C@@H]2c3cc4c(cc3[C@@H](O[C@@H]3O[C@@H]5CO[C@@H](c6cccs6)O[C@H]5[C@H](O)[C@H]3O)[C@H]3COC(=O)[C@H]23)OCO4)cc(OC)c1O [Teniposide] (1 nM) | 99.3 | 103 | 95.8 | 102 | 125 | 99 | 99 | 100 | 107 | 106 | 96.4 | 106 | 106 | 94.1 | 96.9 | 91.8 | 95.9 | 96 | 101
9 | COc1cc2nccc(Oc3ccc(NC(=O)Nc4cc(C)on4)c(Cl)c3)c2cc1OC [Tivozanib] (1 nM) | 91.4 | 102 | 95.7 | 94.3 | 108 | 93 | 97.5 | 94.2 | 88.6 | 92.7 | 93.5 | 91 | 79 | 98.9 | 83.2 | 94.7 | 97.3 | 88.6 | 91.2
10 | COc1cc2nccc(Oc3ccc(NC(=O)Nc4cc(C)on4)c(Cl)c3)c2cc1OC [Tivozanib] (10 nM) | 89.9 | 100 | 97.4 | 82.1 | 85.4 | 93.5 | 99.1 | 99.9 | 98.2 | 98.7 | 100 | 94.3 | 90.3 | 98.5 | 94.2 | 91.7 | 93.5 | 87.2 | 80.7
